What was measured:
[1] = test system: peripheral blood monocytes; test: cell size by flow cytometry (FSC), peripheral blood monocytes; assay type: cell-based, human; conditions: taurolidine 6 h
Experimental: FIG. 12A, FIG. 12B, FIG. 12C, and FIG. 12D are flow cytometric analyses depicting changes in cell morphology following taurolidine treatment. MM6 and PBMC were treated for three hours with taurolidine, and then treated and untreated control cells were processed for flow cytometry. Monocytes in PBMC samples were identified by staining with FITC-conjugated anti-CD14, and lymphocytes by FITC-conjugated anti-CD3 and PE-conjugated anti-CD19. FIG. 12A represents untreated MM6 cells; FIG. 12B represents MM6 cells treated with 50 μg/ml taurolidine; FIG. 12C represents untreated PBMC; and FIG. 12D represents PBMC treated with 75 μg/ml taurolidine. M=monocytes; L=lymphocytes.
A Becton-Dickinson FACSCalibur instrument was used for flow cytometric analysis of cells. Assessment of cell diameter (forward scatter; FCS) and granularity (side scatter; SSC).was carried out on unfixed cells. Discrimination between lymphocytes and monocytes was made possible by their characteristic differences in FSC and SSC, and confirmed by staining monocytes with FITC-labeled anti-CD14 antibodies and lymphocytes with a combination of FITC-conjugated anti-CD3 and PE-conjugated anti-CD19. After incubation with taurolidine (with or without concomitant LPS treatment), cells were rinsed twice in phosphate-buffered saline containing 0.1% bovine serum albumin (PBSA) and 1×10^6 cells were resuspended in 0.1 ml PBSA. […]

Lymphocytes = test: tissue or blood; assay type: cell-based, human; conditions: for induction of apoptosis in lymphocytes: whole blood
Experimental: (§1) FIGS. 15A, 15B, and 15C depict TUNEL analysis of PBMC treated with taurolidine in whole blood, for control cells, taurolidine-treated cells, and anisomycin-treated cells, respectively . Cells were incubated with 500 μg/ml taurolidine for 4 hours, resuspended in fresh medium, incubated for two hours further and processed for TUNEL analysis. Parallel samples were stained with FITC-conjugated anti-CD14 and PI as described herein. Ten thousand events were recorded per sample. TUNEL signal (x -axis) is a measure of DNA fragmentation, while FSC (y-axis) is related to cell size. TUNEL-negative lymphocytes are bounded by rectangle R 1, while TUNEL-negative monocytes (CD 14 positive cells) are bounded by rectangle R2. R3 bounds the TUNEL-positive population of cells. There were minimal numbers of PI-positive cells in 6 hour samples (see Table VI).
(§2) In the second method, DNA fragmentation was detected via TUNEL assay according to the manufacturer's instructions. With this methodology, 2×10^6 cells were fixed with 2% paraformaldehyde, permeabilized with 0.1% Triton X-100/0.1% citrate, incubated at 37° C. with terminal deoxynucleotidyl transferase and FITC-dUTP, rinsed and analyzed by flow cytometry. Enhanced FITC signal indicates apoptosis-specific DNA fragmentation. Gavriali, et al, "Identification of programmed cell death in situ via specific labeling of nuclear DNA fragmentation," J Cell Biol 119:493 (1992). Parallel aliquots of unfixed cells were treated with PI and FITC-conjugated anti-CD14 and analyzed by flow cytometry, in order to identify cells with permeable cell membranes (since PI binds to DNA but is excluded from cells with intact plasma membranes) and also to determine the cell-specificity of the apoptotic signal.
(§3) Taurolidine at 100 μg/ml induced apoptosis of approximately 75% of purified peripheral blood monocytes when these cells were incubated in culture medium. However, in order to more closely mimic the milieu of leukocytes in vivo, induction of apoptosis in PBMC by taurolidine was studied in whole blood (anticoagulated with heparin). As before, apoptosis was quantitated by measuring the loss of monocytes from a TUTNEL-negative (no DNA fragmentation), CD 14 positive population of cells which was concomitant with the appearance of a TUNEL-positive population of cells. Treatment of PBMC in whole blood resulted
(§4) in a shift of the taurolidine dose-response curve. […] As a positive control for induction of apoptosis, some cells were treated with anisomycin, a protein synthesis inhibitor known to induce apoptosis in monocytes.
(§5) ^a Analysis by flow cytometry after staining cells with PI and
(§6) processing for TUNEL. Data are mean ± SD of 2 experiments.
(§7) ^b Percent of cells present in the TUNEL-negative region in control

Monocytes [2] = test: tissue or blood; assay type: cell-based, human
Experimental: as §1, §2, §3, §4, §5, §6, §7

Monocytes [3] = conditions: 24-hour taurolidine treatment; cited from earlier work
[4] = Homo sapiens, Lymphocyte, 6 h, read-out: % TUNEL-negative
[5] = Homo sapiens, Monocyte, 6 h, read-out: % TUNEL-negative

O=S1(=O)CCN(CN2CCS(=O)(=O)NC2)CN1 [taurolidine, 4,4'-methylenebis(perhydro-1,2,4-thiadiazin 1,1-dioxide)]
decrease in FSC [1]: approximately 30% | viability at 200 µg/mL (Lymphocytes; [4]): 92.7 ± 6% | viability at 500 µg/mL (Lymphocytes; [4]): 91.8 ± 6.9% | induction of apoptosis in lymphocytes (Lymphocytes): no evidence for a significant effect | induction of apoptosis in lymphocytes (Lymphocytes; taurolidine up to 500 μg/ml): does not induce a significant amount of apoptosis | viability at 200 µg/mL (Monocytes [2]; [5]): 117 ± 11.2% | viability at 500 µg/mL (Monocytes [2]; [5]): 27.9 ± 12% | cytotoxicity at 500 µg/mL (Monocytes [2]; Homo sapiens, Monocyte, read-out: loss of TUNEL-negative monocytes): 70% | induction of apoptosis in whole blood (Monocytes [2]; up to 200 μg/ml taurolidine): did not induce significant apoptosis | effective concentration in whole blood relative to culture medium (Monocytes [2]; whole blood versus purified PBMC in culture medium): 5 times | LDH release by monocytes (Monocytes [3]): no increase in LDH release
